Source: the supplement of paper PMC10307832

Assays:
Experiment in all cases: relative viability (nuclei count vs DMSO), 5 days (fraction); higher = more cells survive
Decitabine + Crizotinib = compound: Nc1ncn([C@H]2C[C@H](O)[C@@H](CO)O2)c(=O)n1 [Decitabine] + C[C@@H](Oc1cc(-c2cnn(C3CCNCC3)c2)cnc1N)c1c(Cl)ccc(F)c1Cl [Crizotinib] (partner 1 µM)
How it was run: (§1)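 Relative viability divides the nuclei count in treated wells by that in vehicle wells. Lung cancer cell lines were seeded in 1536-well plates, dosed by pin tool the next day, and fixed and stained after 5 days in one step with final 0.05% Triton X-100, 1% formaldehyde and 1 ug/ml Hoechst. Dosing was a single drug or a fixed anchor-drug dose plus five library-drug doses (not always all listed) in √10 steps, and values are medians of duplicate plates imaged at 4×.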

Cediranib + Crizotinib = compound: COc1cc2c(Oc3ccc4[nH]c(C)cc4c3F)ncnc2cc1OCCCN1CCCC1 [Cediranib] + C[C@@H](Oc1cc(-c2cnn(C3CCNCC3)c2)cnc1N)c1c(Cl)ccc(F)c1Cl [Crizotinib] (partner 1 µM)
How it was run: as §1

[1] = compound: O=C(C[C@H]1NCCC[C@@H]1O)Cn1cnc2cc(Br)c(Cl)cc2c1=O (racemic) [Halofuginone] + C[C@]1(O)C[C@@H](c2nc(-c3ccc4ccc(-c5ccccc5)nc4c3)c3c(N)nccn32)C1 [Linsitinib] (partner 1 µM)
How it was run: as §1

Cediranib + Vorinostat = compound: COc1cc2c(Oc3ccc4[nH]c(C)cc4c3F)ncnc2cc1OCCCN1CCCC1 [Cediranib] + O=C(CCCCCCC(=O)Nc1ccccc1)NO [Vorinostat] (partner 1 µM)
How it was run: as §1

| Cell Line | relative viability (Decitabine + Crizotinib; first compound 0.04 µM) | relative viability (Decitabine + Crizotinib; first compound 0.1265 µM) | relative viability (Decitabine + Crizotinib; first compound 0.4 µM) | relative viability (Decitabine + Crizotinib; first compound 1.265 µM) | relative viability (Decitabine + Crizotinib; first compound 4 µM) | relative viability (Cediranib + Crizotinib; first compound 0.04 µM) | relative viability (Cediranib + Crizotinib; first compound 0.4 µM) | relative viability (Cediranib + Crizotinib; first compound 1.265 µM) | relative viability (Cediranib + Crizotinib; first compound 4 µM) | relative viability ([1]; first compound 0.001 µM) | relative viability ([1]; first compound 0.003162 µM) | relative viability ([1]; first compound 0.01 µM) | relative viability ([1]; first compound 0.03162 µM) | relative viability ([1]; first compound 0.1 µM) | relative viability (Cediranib + Vorinostat; first compound 0.04 µM) | relative viability (Cediranib + Vorinostat; first compound 0.1265 µM) | relative viability (Cediranib + Vorinostat; first compound 0.4 µM) | relative viability (Cediranib + Vorinostat; first compound 1.265 µM) | relative viability (Cediranib + Vorinostat; first compound 4 µM) | relative viability (Cediranib + Crizotinib; first compound 0.1265 µM) |
| --- | --- | --- | --- | --- | --- | --- | --- | --- | --- | --- | --- | --- | --- | --- | --- | --- | --- | --- | --- | --- |
| HOP-62 | 0.421 | 0.318 | 0.149 | 0.117 | 0.133 | 0.802 | 0.886 | 0.858 | 1.1 | 1.1 | 1.07 | 1.09 | 0.95 | 0.302 | 0.633 | 0.418 | 0.575 | 0.468 | 0.896 | – |
| LK-2 | – | 0.219 | 0.262 | 0.265 | 0.219 | 0.19 | 0.247 | 0.25 | 0.257 | 0.722 | 0.656 | 0.433 | 0.609 | 0.452 | 0.352 | 0.332 | 0.421 | 0.353 | 0.279 | 0.222 |
| SW 1573 | 0.627 | 0.961 | 0.724 | 0.507 | 0.358 | 0.833 | 0.726 | 0.717 | 0.889 | 0.902 | 0.796 | 0.704 | 0.683 | 0.35 | 1.03 | 0.532 | 0.991 | 0.582 | 0.806 | 0.764 |
| SK-LU-1 | 0.668 | 0.614 | 0.352 | 0.484 | 0.453 | 0.973 | 0.781 | 0.897 | 0.983 | 1.18 | 0.559 | 1.14 | 0.912 | 0.58 | 0.881 | 0.777 | 0.685 | 0.775 | 0.773 | 0.853 |
| NCI-H23 | 0.338 | 0.373 | 0.21 | 0.175 | 0.163 | 0.472 | 0.557 | 0.518 | 0.597 | 0.656 | 0.573 | 0.556 | 0.692 | 0.211 | 0.545 | 0.487 | 0.532 | 0.587 | 0.789 | – |
| NCI-H1355 | 0.642 | 0.495 | 0.413 | 0.29 | 0.281 | 1.1 | 1.08 | 0.992 | 1.31 | 0.825 | 0.819 | 0.832 | 0.822 | 0.61 | 0.688 | 0.684 | 0.572 | 0.544 | 0.616 | 0.977 |
| COR-L23 | 0.332 | 0.33 | 0.332 | 0.22 | 0.184 | 0.696 | 0.654 | 0.703 | 0.68 | 0.973 | 0.91 | 0.972 | 0.876 | 0.102 | 0.52 | 0.428 | 0.412 | 0.433 | 0.458 | 0.749 |
| NCI-H2023 | 0.471 | 0.455 | 0.285 | 0.217 | 0.133 | 0.579 | 0.489 | 0.575 | 0.588 | 0.76 | 0.535 | 0.706 | 0.232 | 0.157 | 0.739 | 0.4 | 0.545 | 0.723 | 0.9 | 0.703 |
| A-427 | 0.489 | 0.403 | 0.316 | 0.205 | 0.165 | 0.946 | 0.829 | 0.866 | 0.884 | 1.18 | 1.13 | 1.02 | 1.09 | 1.08 | 0.846 | – | 0.835 | 0.853 | 0.882 | – |
| NCI-H596 | 0.939 | 1.02 | 0.353 | 0.772 | 0.755 | 0.934 | 0.988 | 0.954 | 1.09 | 1.13 | 1.04 | 1.07 | 1.12 | 0.732 | 0.584 | 0.488 | 0.585 | 0.682 | 0.836 | 1.09 |
| LU99A | 0.517 | 0.491 | 0.631 | 0.439 | 0.317 | 0.639 | 0.59 | 0.547 | 0.649 | 0.634 | 0.477 | 0.522 | 0.515 | 0.45 | 0.456 | – | 0.51 | 0.407 | 0.578 | – |
| IA-LM | 0.342 | 0.274 | 0.2 | 0.191 | 0.102 | 0.775 | 0.718 | 0.828 | 0.992 | 0.735 | 0.78 | 0.547 | 0.775 | 0.434 | 1.12 | – | 0.895 | 1.03 | 1.06 | 1.28 |
| NCI-H2009 | 0.846 | 0.639 | 0.464 | 0.281 | 0.25 | 1.12 | 0.989 | 1.06 | 1.04 | 1.27 | 1.12 | 1.19 | 0.872 | 0.81 | 0.736 | 0.672 | 0.715 | 0.736 | 0.717 | 1.03 |
